Read-outs that look alike come from different tables or passages of the source.
How the values were obtained:
[1] = system: T1, plasma ATX activity; experiment: In vivo inhibition of plasma ATX activity (TOOS assay); set-up: species or system mouse; conditions: 10 mg/kg i.p.
T1 construct: from tissue; host or cells: mouse plasma / whole blood
Protocol: ATX/LysoPLD activity was assessed based on the amount of choline released from LPC with the use of TOOS (N-ethyl-N-(2-hydoroxy-3-sulfopropyl)-3-methylaniline) reagent. In this assay ATX-mediated LPC-liberated choline is oxidised by choline oxidase to betaine and hydrogen peroxide (H2O2). The latter in the presence of horseradish peroxidase reacts with TOOS and 4-aminoantipyrene (4-AAP) to form a pink quinoneimine dye measured at 555 nm. […]
The liberated choline was detected by adding 100 μl of a color mix containing 4-AAP and TOOS (0.3 mM), horseradish peroxidase (5.3 UnitmL^−1) and choline oxidase (2 UnitmL^−1). Absorbance was measured at 555 nm and data were analyzed using the statistical software package Prism 4.0 (Graphpad Software Inc, La Jolla, CA, USA). For each sample and control the absorbance was plotted against time and the slope (da/min) for the linear (steady-state) portion of each reaction profile was calculated. Absorbance units were converted to nmol of choline/min/ml by comparison with a choline standard curve or by use of the extinction coefficient for the quinoneimine dye according to the following equation: [drawing 1] […]
BrP-LPA was administered intraperitoneally (IP) at 10 mg/kg in water to 6–8 week old female mice. […] Plasma samples were then analysed for plasma ATX activity and BrP-LPA/LPA/LPC levels with the TOOS activity assay and HPLC-MS/MS respectively. […]

[2] = system: orthotopic breast cancer xenograft model; set-up: method as in PMID 19509223; conditions: in vivo; cited from earlier work
[3] = system: LPA production in whole blood; experiment: LPA and LPC levels in whole blood ex vivo (HPLC-MS/MS); set-up: species or system mouse
Protocol: BrP-LPA, LPA species (C14:0, C16:0, C18:0, C18:1 and C20:4) and LPC species (C14:0, C16:0, C18:0, C18:1 and C20:0) were measured in plasma with HPLC-ESI/MS/MS using RSLCnano system (Ultimate 3000) coupled in-line with an LTQ Orbitrap XL mass spectrometer (Thermo Scientific, Waltham, MA, USA). BrP-LPA and lipid (LPA, LPC) extraction from plasma was performed on ice according to the Folch method with minor modifications. Plasma samples (50 ul) were mixed with 950 ul PBS prior to extraction and spiked with the internal standard mix (17:1 LPA/LPC). Samples were extracted under neutral conditions with 4 ml of ice-cold CHCl3/CH3OH (2/1, v/v) followed by 2 ml of PBS-saturated ice-cold CHCl3/CH3OH (2/1, v/v). Each extraction step was followed by a 60 s vortex and a 1 min centrifugation step in a bench-top clinical centrifuge in a cold room at 4°C at 3,000 rpm. The lower chloroform organic phases from both neutral extraction steps were pooled and kept for LPC measurement. The remained aqueous phase was chilled on ice for 10 min and extracted twice with ice-cold acidified with acetic acid CHCl3/CH3OH (2/1, v/v) as above. The lower organic phases were pooled, neutralized to pH 6–7 (checked with pH paper as above) on ice and kept for LPA, BrP-LPA measurements. The kept neutral lower organic phase of neutral extraction and the neutralized acidified lower organic phase were evaporated to dryness. The resulting residues were resuspended in 0.15 ml of isopropanol and after brief vortex mixing the solution was transferred to the auto sampler vial. Recovery of LPA species was between 60% and 95%. Recovery of BrP-LPA was 70% and the recovery of LPC species was between 80% and 100%. The Relative Standard Deviation (RSD) was less than 7% from the plasma fortified with three different concentrations (0.1, 0.5 and 1 μΜ) of LPAs, (0.1, 1 and 10 μΜ) of BrP-LPA and (0.5, 5 and 50 μΜ) of LPCs. Analysis was performed using a Phenomenex (Phenomenex, Torrance, CA, USA) Luna Silica column (2–250 mm, 5 μm particle size) using a binary gradient program consisting of isopropanol:hexane:100 mM NH4CO2H(aq) 58:40:2 (mobile phase A) and isopropanol:hexane:100 mM NH4CO2H(aq) 50:40:10 (mobile phase B). The mobile phase was delivered at a flow rate of 0.3 ml/min and the total run time was 50 min/sample. The analysis was performed with electrospray ionization in negative SIM (Single Ion Monitoring) mode for LPA species and BrP-LPA and in positive mode for LPC species (data dependent MS/MS). The resolution was 100 K providing high accuracy for lysophospholipid measurements. Data were collected and processed with the Xcalibur software (Thermo Scientific). The precursor ion mass was used for the quantification while lipid identity was confirmed by precursor ion fragmentation using collision induced dissociation (CID). The peak area ratios (lipid/internal standard) versus the molar ratios (lipid/internal standard) were plotted and fitted to a linear regression. The linear dynamic range of LPA species and BrP-LPA was between 0.01 μM and 10 μΜ.
The inhibition model (competitive, noncompetitive, or mixed type inhibition) was evaluated by graphical analysis with Lineweaver–Burk double reciprocal plots (1/[velocity] versus 1/[substrate]) and Cornish-Bowden plot ([substrate]/[velocity] versus [Inhibitor]). These plots were generated by the measurement of ATX activity in the presence of different BrP-LPA concentrations (0–10 μΜ) and increased amounts of 16:0 LPC (100, 200, 400 μΜ). The inhibition constants (Ki) and IC50 values were determined using the mean values obtained from two independent experiments. The relative remaining ATX activity or LPA levels in the presence of the BrP-LPA was expressed as a percentage of the corresponding control value (ATX activity, LPA levels without inhibitor). […]

Compound: CCCCCCCCCCCCCCCC(=O)OC[C@@H](O)CC(Br)P(=O)(O)O (stereo partly drawn) [BrP-LPA, 1-bromo-3(S)-hydroxy-4-(palmitoyloxy)butyl-phosphonate]
- reduction of plasma ATX activity ([1]; 1 hour post administration): 48%
- ATX activity, % of initial activity ([1]; sixteen hours post administration): 92%
- tumor regression [2]: cause tumor regression in vivo
- reduction of 18:0 LPA levels ([3]; BrP-LPA 10 μM): 97%
- reduction of total LPA levels ([3]; BrP-LPA 10 μM): 86%
- IC50 ([3]; read-out: IC50, production of 16:0 LPA): 1340 nM
- IC50 ([3]; read-out: IC50, production of 18:0 LPA): 300 nM
- IC50 ([3]; read-out: IC50, production of 18:1 LPA): 1520 nM
- IC50 ([3]; read-out: IC50, production of 20:4 LPA): 559 nM
- endogenous LPC levels ([3]; upon addition of BrP-LPA): no significant changes

— PMC3726599, “A Metabolically-Stabilized Phosphonate Analog of Lysophosphatidic Acid Attenuates Collagen-Induced Arthritis” (PLoS ONE, 2013)
